Patent publication USRE39591E1, “6-O-substituted ketolides having antibacterial activity” (Abbott Laboratories, priority 1996, dated 2007)
In brackets after ≈: the same amount, converted by molar mass.

Tested on: up to 32 different microorganisms
Test: in vitro antibacterial activity (MIC), agar dilution on Brain Heart Infusion (BHI) agar with Steers replicator
Format: cell-based
Conditions: unit assumed
In short: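 Erythromycin A served as the same-class reference for test-to-test comparability. Test compound was tested over twelve successive dilutions in BHI agar; plates were incubated 20 to 24 hours at 35°-37° C, with MIC taken as the lowest concentration showing no growth, slight haze, or sparse colonies.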

Compound	MIC (organism code AA) [µg/mL]	MIC (organism code BB) [µg/mL]	MIC (organism code CC) [µg/mL]	MIC (organism code DD) [µg/mL]	MIC (organism code EE) [µg/mL]	MIC (organism code FF) [µg/mL]	MIC (organism code GG) [µg/mL]	MIC (organism code HH) [µg/mL]	MIC (organism code II) [µg/mL]	MIC (organism code JJ) [µg/mL]	MIC (organism code KK) [µg/mL]	MIC (organism code MM) [µg/mL]	MIC (organism code NN) [µg/mL]	MIC (organism code OO) [µg/mL]	MIC (organism code PP) [µg/mL]	MIC (organism code QQ) [µg/mL]	MIC (organism code RR) [µg/mL]	MIC (organism code SS) [µg/mL]	MIC (organism code TT) [µg/mL]	MIC (organism code UU) [µg/mL]	other results
CCC1OC(=O)C(C)C(=O)C(C)C(OC2OC(C)CC(N(C)C)C2O)C(C)(OCC=Cc2ccc3ncc(-c4cccnc4)cc3c2)CC(C)C(=O)C(C)C2NC(=O)OC12C (centres unmarked) [Example 274]	0.1 (≈ 0.119 µM)	0.1 (≈ 0.119 µM)	> 100	0.1 (≈ 0.119 µM)	0.1 (≈ 0.119 µM)	0.05 (≈ 0.0593 µM)	> 100	0.1 (≈ 0.119 µM)	0.05 (≈ 0.0593 µM)	0.01 (≈ 0.0119 µM)	0.01 (≈ 0.0119 µM)	6.2 (≈ 7.35 µM)	0.1 (≈ 0.119 µM)	0.01 (≈ 0.0119 µM)	0.1 (≈ 0.119 µM)	> 100	0.2 (≈ 0.237 µM)	> 100	> 100	0.78 (≈ 0.925 µM)	MIC (organism code LL): 0.01 µg/mL (≈ 0.0119 µM); MIC (organism code VV): 0.05 µg/mL (≈ 0.0593 µM); MIC (organism code WW): 4 µg/mL (≈ 4.74 µM); MIC (organism code XX): ≤ 0.004 µg/mL; MIC (organism code YY): ≤ 0.004 µg/mL; MIC (organism code ZZ): 8 µg/mL (≈ 9.49 µM); MIC (organism code ZZA): 0.25 µg/mL (≈ 0.297 µM)
CCC1OC(=O)C(C)C(=O)C(C)C(OC2OC(C)CC(N(C)C)C2O)C(C)(OCC=Cc2ccc3ncc(-c4cccs4)cc3c2)CC(C)C(=O)C(C)C2NC(=O)OC12C (centres unmarked) [Example 275, Compound of Formula (IX): L is CO, T is NH2, R is —CH2CH═CH-(3-(2-thiphenyl)-6-quinolyl)]	0.2	0.2	> 100	0.2	0.2	0.2	> 100	0.2	0.1	0.01	0.05	12.5	0.2	0.02	0.2	> 100	0.78	> 100	> 100	0.39	MIC (organism code LL): 0.02 µg/mL; MIC (organism code VV): 0.2 µg/mL; MIC (organism code WW): 8 µg/mL; MIC (organism code XX): 0.03 µg/mL; MIC (organism code YY): 0.03 µg/mL; MIC (organism code ZZ): 4 µg/mL; MIC (organism code ZZA): 0.5 µg/mL
CCC1OC(=O)C(C)C(=O)C(C)C(OC2OC(C)CC(N(C)C)C2O)C(C)(OCC=Cc2ccc(C)c3ccccc23)CC(C)C(=O)C(C)C2NC(=O)OC12C (centres unmarked) [Example 276, Compound of Formula (IX): L is CO, T is NH2, R is —CH2CH═CH-(4-methylnaphthyl)]	0.39	0.78	50	0.39	0.78	0.78	25	0.78	0.2	0.02	0.1	25	0.39	0.1	0.39	> 100	6.2	> 100	> 100	0.78	MIC (organism code LL): 0.02 µg/mL; MIC (organism code VV): 1.56 µg/mL; MIC (organism code WW): 8 µg/mL; MIC (organism code XX): 0.125 µg/mL; MIC (organism code YY): 0.125 µg/mL; MIC (organism code ZZ): 16 µg/mL; MIC (organism code ZZA): 0.5 µg/mL
CCC1OC(=O)C(C)C(=O)C(C)C(OC2OC(C)CC(N(C)C)C2O)C(C)(OCC=Cc2ccc3cccnc3c2)CC(C)C(=O)C(C)C2NC(=O)OC12C (centres unmarked) [Example 278, Compound of Formula (IX): L is CO, T is NH2, R is —CH2CH═CH-(7-quinolyl)]	0.05	0.05	> 100	0.05	0.05	0.05	> 100	0.1	0.05	0.01	0.01	1.56	0.2	0.01	0.1	25	0.39	12.5	> 100	0.78	MIC (organism code LL): ≤ 0.005 µg/mL; MIC (organism code VV): 0.02 µg/mL; MIC (organism code WW): 4 µg/mL; MIC (organism code XX): 0.03 µg/mL; MIC (organism code YY): 0.03 µg/mL; MIC (organism code ZZ): 128 µg/mL; MIC (organism code ZZA): 0.5 µg/mL
CCC1OC(=O)C(C)C(=O)C(C)C(OC2OC(C)CC(N(C)C)C2O)C(C)(OCC=Cc2ccc(F)c3ccccc23)CC(C)C(=O)C(C)C2NC(=O)OC12C (centres unmarked) [Example 279, Compound of Formula (IX): L is CO, T is NH2, R is —CH2CH═CH-(4-fluoronaphthyl)]	0.39	0.39	50	0.78	0.39	0.39	50	0.39	0.2	0.05	0.02	25	0.39	0.05	0.39	> 100	1.56	> 100	> 100	0.78	MIC (organism code VV): 0.78 µg/mL; MIC (organism code WW): 8 µg/mL; MIC (organism code XX): 0.03 µg/mL; MIC (organism code YY): 0.03 µg/mL; MIC (organism code ZZ): 32 µg/mL; MIC (organism code ZZA): 0.5 µg/mL
CCC1OC(=O)C(C)C(=O)C(C)C(OC2OC(C)CC(N(C)C)C2O)C(C)(OCC=Cc2cccc(-c3ccccc3)c2)CC(C)C(=O)C(C)C2NC(=O)OC12C (centres unmarked) [Example 280, Compound of Formula (IX): L is CO, T is NH2, R is —CH2CH═CH-(3-biphenyl)]	0.39	0.39	50	0.39	0.39	0.39	50	0.39	0.2	0.05	0.05	12.5	0.39	0.1	0.78	> 100	1.56	> 100	> 100	3.1	MIC (organism code LL): 0.1 µg/mL; MIC (organism code VV): 6.2 µg/mL; MIC (organism code WW): 8 µg/mL; MIC (organism code XX): 0.06 µg/mL; MIC (organism code YY): 0.06 µg/mL; MIC (organism code ZZ): 16 µg/mL; MIC (organism code ZZA): 1 µg/mL
CCC1OC(=O)C(C)C(=O)C(C)C(OC2OC(C)CC(N(C)C)C2O)C(C)(OCC=Cc2cccc3c([N+](=O)[O-])cccc23)CC(C)C(=O)C(C)C2NC(=O)OC12C (centres unmarked) [Example 281, Compound of Formula (IX): L is CO, T is NH2, R is —CH2CH═CH-(5-nitronaphthyl)]	0.78	0.78	> 100	0.78	0.78	0.78	> 100	0.78	0.39	0.05	0.1	50	0.39	0.2	0.78	> 100	3.1	> 100	> 100	3.1	MIC (organism code LL): 0.1 µg/mL; MIC (organism code VV): 3.1 µg/mL; MIC (organism code WW): 32 µg/mL; MIC (organism code XX): 0.25 µg/mL; MIC (organism code YY): 0.25 µg/mL; MIC (organism code ZZ): 64 µg/mL; MIC (organism code ZZA): 1 µg/mL
CCC1OC(=O)C(C)C(=O)C(C)C(OC2OC(C)CC(N(C)C)C2O)C(C)(OCC=Cc2ccc(-n3cccc3)cc2)CC(C)C(=O)C(C)C2NC(=O)OC12C (centres unmarked) [Example 282, Compound of Formula (IX): L is CO, T is NH2, R is —CH2CH═CH-(4-pyrrolylphenyl)]	0.2	0.1	100	0.2	0.2	0.1	100	0.2	0.05	0.01	≤ 0.005	25	0.1	0.05	0.2	> 100	0.78	> 100	> 100	1.56	MIC (organism code LL): ≤ 0.005 µg/mL; MIC (organism code VV): 0.2 µg/mL; MIC (organism code WW): 8 µg/mL; MIC (organism code XX): 0.03 µg/mL; MIC (organism code YY): 0.03 µg/mL; MIC (organism code ZZ): 36 µg/mL; MIC (organism code ZZA): 0.25 µg/mL
CCC1OC(=O)C(C)C(=O)C(C)C(OC2OC(C)CC(N(C)C)C2O)C(C)(OCC=Cc2ccc3cc(OC)ccc3c2)CC(C)C(=O)C(C)C2NC(=O)OC12C (centres unmarked) [Example 283, Compound of Formula (IX): L is CO, T is NH2, R is —CH2CH═CH-(6-methoxy-2-naphthyl)]	0.1	0.1	100	0.1	0.1	0.1	50	0.2	0.05	0.01	0.02	3.1	0.2	0.01	0.2	> 100	0.78	> 100	> 100	0.39	MIC (organism code LL): ≤ 0.005 µg/mL; MIC (organism code VV): 0.2 µg/mL; MIC (organism code WW): 2 µg/mL; MIC (organism code XX): ≤ 0.004 µg/mL; MIC (organism code YY): ≤ 0.004 µg/mL; MIC (organism code ZZ): 4 µg/mL; MIC (organism code ZZA): 0.125 µg/mL
CCC1OC(=O)C(C)C(=O)C(C)C(OC2OC(C)CC(N(C)C)C2O)C(C)(OCC=Cc2cc(Cl)cc(Cl)c2)CC(C)C(=O)C(C)C2NC(=O)OC12C (centres unmarked) [Example 284, Compound of Formula (IX): L is CO, T is NH2, R is —CH2CH═CH-(3,5-dichlorophenyl)]	0.2	0.2	50	0.2	0.2	0.2	50	0.2	0.05	0.02	0.02	25	0.2	0.05	0.2	> 100	1.56	> 100	50	0.2	MIC (organism code LL): ≤ 0.005 µg/mL; MIC (organism code VV): 0.78 µg/mL; MIC (organism code WW): 4 µg/mL; MIC (organism code XX): 0.03 µg/mL; MIC (organism code YY): 0.03 µg/mL; MIC (organism code ZZ): 32 µg/mL; MIC (organism code ZZA): 0.25 µg/mL
